In patent publication US20240116897A1, “BENZOTHIAZOLE AND BENZIMIDAZOLE DERIVATIVES, PHARMACEUTICALLY ACCEPTABLE SALT THEREOF, PREPARATION METHOD THEREFOR, AND PHARMACEUTICAL COMPOSITION COMPRISING SAME AS ACTIVE INGREDIENT” (KOREA RESEARCH INSTITUTE OF CHEMICAL TECHNOLOGY, priority 2021, published 2024):
Read-outs that look alike come from different tables or passages of the source.

Experiments:
[1] = tested on: COLO32ODM tumor xenograft; experiment: In vivo mouse tumor xenograft, COLO32ODM; conditions: for tumor size compared to the control group: nude mice, 3 weeks
Experimental: (§1) The compounds of the present invention were administered to mouse tumor xenograft to measure tumor suppression in vivo test. BALB/C-nu female 5-week-old mice were introduced. COLO32ODM and SW480 cells, which are human colorectal cancer cells, were isolated from culture flasks using trypsin and prepared at a concentration of 1×10^8 cell/ml. It was mixed with Matrigel (Gibco, Cat. No. A14133-02) at a ratio of 1:1 and injected 100 μL subcutaneously into the dorsal side of 5-week-old mice. After 2 weeks, when the volume of the mouse tumor reached 100 mm^3, oral administration of the compound was started 5 times a week. (Day 0), After that, it was conducted for 3 weeks.
(§2) In the negative control group, 0.1% Carboxylmethyl cellulose and 0.2% tween 80 solution were administered instead of the compound according to the same administration route and administration frequency. 6 mice were used for each experimental group (FIG. 3). The size of the tumor was measured in the long axis (length, L) and the short axis (width, W) once every 3 days, and the tumor volume (mm^3) was calculated as (L×W×W)/2 thereby the average for each group was calculated. Statistical processing was performed using the GraphPad Prism6 program, and a p-value of less than 0.05 was considered significant.
A 5-week-old nude mouse whose thymus was removed and whose T cells were reduced and whose immune system was suppressed was introduced, and human colorectal cancer cell lines, COLO32ODM and SW480, were subcutaneously injected.

SIRT7 protein = target: T1, SIRT7 protein (Homo sapiens, UniProt Q9NRC8); experiment: SIRT Glo assay, inhibitory activity against Sirt7; format: biochemical; conditions: 10 μM compound
T1 construct: purchased SignalChem S41-30H
T1 sequence (Q9NRC8 1-400): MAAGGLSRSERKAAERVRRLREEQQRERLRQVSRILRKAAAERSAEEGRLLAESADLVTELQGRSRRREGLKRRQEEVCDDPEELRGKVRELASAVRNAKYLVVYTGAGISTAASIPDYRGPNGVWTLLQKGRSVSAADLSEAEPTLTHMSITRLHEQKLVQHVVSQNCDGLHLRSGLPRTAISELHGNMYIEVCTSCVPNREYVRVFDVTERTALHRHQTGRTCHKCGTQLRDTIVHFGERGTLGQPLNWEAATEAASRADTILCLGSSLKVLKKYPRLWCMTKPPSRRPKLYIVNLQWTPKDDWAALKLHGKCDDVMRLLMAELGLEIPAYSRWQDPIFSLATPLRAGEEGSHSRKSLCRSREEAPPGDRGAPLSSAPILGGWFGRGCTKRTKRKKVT
In short: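 Recombinant SIRT7 (20 ng per well) pre-incubated 30 min with compound in SIRT Glo buffer, then SIRT Glo substrate added for 1 h before luminescence reading. Background-subtracted signal expressed as % inhibition relative to no-compound control.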

COLO32ODM cells = experiment: LDH cytotoxicity test, cancer cell line; format: cell-based, human; conditions: 48 hours
Experimental: (§3) LDH released is measured to determine whether a compound is toxic.
(§4) Thermo's Cat. No. 88953 LDH Cytotoxicity assay kit was used. 20,000 cells were seeded in a 96 well plate and treated with 100 μM and 500 μM compounds after 24 hours of culture. After 48 hours, transfer 50 μL of the compound-treated culture supernatant to a new 96-well plate, add 50 μL of substrate mix buffer provided in the kit, block light, and react at room temperature for 30 minutes. After adding 50 μL of Stop solution, the absorbance was measured at 490 nm using a microplate reader (Molecular Device, spectramax i3).

SW480 tumor xenograft = experiment: In vivo mouse tumor xenograft, SW480; conditions: nude mice, oral 10 mpk, 20 mpk, 40 mpk, 3 weeks
Experimental: as §1
as §2, with “Dissolve the compound in 0.1% Carboxylmethyl cellulose (CMC) and 0.2% tween 80 solution at concentrations of 2 mg/ml, 4 mg/ml, and 8 mg/ml, and 100 ul was orally administered to achieve concentrations of 10 mpk, 20 mpk, and 40 mpk. In” for “In”, “Statistical processing was performed using the GraphPad Prism6 program, and a p-value of less than 0.05 was considered significant.” left out

WI38 cells = conditions: human, 48 h
Experimental: as §3, §4

SMILES	inhibition at 10 µM (SIRT7 protein)	further results
CCNC(=O)N1CCN(Cc2ccc(C(=O)Nc3nc4ccccc4s3)cc2)CC1 [Compound 1-37, 4-(4-(benzo[d]thiazol-2-ylcarbamoyl)benzyl)-N-ethylpiperazine-1-carboxamide]	81%	cytotoxicity (LDH release) compared to the positive control that damaged all cell membranes (COLO32ODM cells; 100 μM): 62.1%; cytotoxicity (LDH release) compared to the positive control that damaged all cell membranes (COLO32ODM cells; 500 μM): 62.0%; tumor size compared to the control group ([1]; oral 10 mpk, 20 mpk, 40 mpk): reduced; dose dependence of tumor formation inhibitory effect ([1]; oral 10, 20, 40 mpk): concentration-dependent tumor formation inhibitory effect; tumor formation inhibitory effect ([1]; oral 40 mpk): most significant tumor formation inhibitory effect; tumor size compared to the control group (SW480 tumor xenograft): reduced; cytotoxicity (LDH release) compared to the positive control that damaged all cell membranes (WI38 cells; 100 μM): 29.9%; cytotoxicity (LDH release) compared to the positive control that damaged all cell membranes (WI38 cells; 500 μM): 41.6%
CC(C)(C)OC(=O)N1CC2(CCN(Cc3ccc(C(=O)Nc4nc5ccccc5s4)cc3)CC2)C1 [Compound 1-27, tert-butyl 7-(4-(benzo[d]thiazol-2-ylcarbamoyl)benzyl)-2,7-diazaspiro[3.5]nonane-2-carboxylate]	27%	–
Cn1c(NC(=O)c2ccc(CN3CCN(C(=O)OC(C)(C)C)CC3)cc2)nc2ccccc21 [Compound 1-2, Tert-Butyl 4-(4-((1-methyl-1H-benzo[d]imidazol-2-yl)carbamoyl)benzyl)piperazine-1-carboxylate]	8%	–
O=C(Nc1nc2ccccc2s1)c1ccc(CN2CCN(C(=O)NC34CC5CC(CC(C5)C3)C4)CC2)cc1 [Compound 1-41]	66%	–
O=C(Nc1nc2ccccc2s1)c1ccc(CN2CCC3(CC2)OCCO3)cc1 [Compound 1-29, 4-((1,4-dioxa-8-azaspiro[4.5]decan-8-yl)methyl)-N-(benzo[d]thiazol-2-yl)benzamide]	83%	–
COc1ccc(NC(=O)N2CCN(Cc3ccc(C(=O)Nc4nc5ccccc5s4)cc3)CC2)cc1 [Compound 1-42, 4-(4-(benzo[d]thiazol-2-ylcarbamoyl)benzyl)-N-(4-methoxyphenyl)piperazine-1-carboxamide]	89%	–
CC(C)(C)OC(=O)N1CCN(c2nc3ccccc3s2)CC1 [Compound 1-22, tert-butyl 4-(benzo[d]thiazol-2-yl)piperazine-1-carboxylate]	49%	–
O=C(Nc1nc2ccccc2s1)c1ccc(CN2CCN(C(=O)c3ccccc3)CC2)cc1 [Compound 1-60, N-(benzo[d]thiazol-2-yl)-4-((4-benzoylpiperazin-1-yl)methyl)benzamide]	7%	–

Second part, led by results:

inhibition at 10 µM (SIRT7 protein)	SMILES	further results
99%	O=C(Nc1nc2ccccc2s1)c1ccc(C=C2CCN(C(=O)Nc3ccccc3)CC2)cc1Cl [Compound 1-106, 4-(4-(benzo[d]thiazol-2-ylcarbamoyl)-3-chlorobenzylidene)-N-phenylpiperidine-1-carboxamide]	tumor size compared to the control group [1]: reduced
100%	CCNC(=O)N1CCC(=Cc2ccc(C(=O)Nc3nc4ccccc4s3)c(Cl)c2)CC1 [Compound 1-105, 4-(4-(benzo[d]thiazol-2-ylcarbamoyl)-3-chlorobenzylidene)-N-ethylpiperidine-1-carboxamide]	tumor size compared to the control group [1]: reduced
23%	O=C(Nc1nc2ccccc2s1)c1ccc(CN2C[C@@H]3C[C@H]2CN3)cc1 [Compound 1-71, 4-(((1S,4S)-2,5-diazabicyclo[2.2.1]heptan-2-yl)methyl)-N-(benzo[d]thiazol-2-yl)benzamide]	–
64%	O=C(Nc1nc2ccccc2s1)c1ccc(CN2C[C@@H]3C[C@H]2CN3C(=O)Nc2ccccc2)cc1 [Compound 1-73, (1S,4S)-5-(4-(benzo[d]thiazol-2-ylcarbamoyl)benzyl)-N-phenyl-2,5-diazabicyclo[2.2.1]heptane-2-carboxamide]	–
91%	O=C(Nc1nc2ccccc2s1)c1ccc(C=C2CCNCC2)c(Cl)c1 [Compound 1-96, N-(benzo[d]thiazol-2-yl)-3-chloro-4-(piperidin-4-ylidenemethyl)benzamide]	–
92%	O=C(Nc1nc2ccccc2s1)c1ccc(C=C2CCNCC2)cc1Cl [Compound 1-104, N-(benzo[d]thiazol-2-yl)-2-chloro-4-(piperidin-4-ylidenemethyl)benzamide]	–
27%	O=C(Nc1nc2ccccc2s1)c1ccc(C=C2CCN(S(=O)(=O)c3ccccc3)CC2)cc1F [Compound 1-90, N-(benzo[d]thiazol-2-yl)-2-fluoro-4-((1-(phenylsulfonyl)piperidin-4-ylidene)methyl)benzamide]	–
2%	CC(C)(C)OC(=O)N1CCC(Cc2ccc(C(=O)Nc3nc4ccccc4s3)c(C(F)(F)F)c2)CC1 [Compound 1-82, tert-butyl 4-(4-(benzo[d]thiazol-2-ylcarbamoyl)-3-(trifluoromethyl)benzyl)piperidine-1-carboxylate]	–
